Reference: US7253191B2, “2-thio-substituted imidazole derivatives and the use thereof in the pharmaceutical industry” (Merckle GmbH, priority 2001, dated 2007)

How the values were obtained:
IL-1β = experiment: In vitro test of cytokine release: LPS-stimulated human whole blood / PBMCs, IL-1β by ELISA; assay type: cell-based; details: for IC50: LPS (E.coli 026:B6) stimulation 4 hours, table does not say whole blood or PBMCs
Protocol: (§1) They may be administered in one individual dose or in a plurality of doses. The activity spectrum of the compounds as inhibitors of cytokine release was examined using the test systems below, as described by C. Donat and S. Laufer in Arch. Pharm. Pharm. […] 1, 1-40, 2000.
(§2) The reaction is stopped by placing the samples on ice, adding DPBS buffer and then centrifuging at 1000*g for 15 min. The amount of IL-1β and TNFα in the plasma supernatant is then determined by ELISA.
(§3) The cells are washed twice with DPBS buffer, resuspended in macrophage SFM medium and adjusted to a cell count of 1*10^6 cells/ml.
(§4) The reaction is stopped by placing the samples on ice, adding DPBS buffer and then centrifuging at 15 880*g for 12 min. The amount of IL-1β and TNFα in the plasma supernatant is then determined by ELISA.

TNF-α = experiment: In vitro test of cytokine release: LPS-stimulated human whole blood / PBMCs, TNFα by ELISA; assay type: cell-based; details: for IC50: LPS (E.coli 026:B6) stimulation 4 hours, table does not say whole blood or PBMCs; for TNF-α, value given in %: concentration not given
Protocol: as §1, §2, §3, §4

| Compound | IC50 (IL-1β; Homo sapiens, Table 2) [µM] | IC50 (TNF-α; Homo sapiens, Table 2) [µM] | also measured |
| --- | --- | --- | --- |
| CCCn1c(Sc2ccccc2)nc(-c2ccc(F)cc2)c1-c1ccncc1 [Example 52, 4-(4-Fluorophenyl)-2-phenylthio-1-n-propyl-5-(4-pyridyl)imidazole] | – | – | IC50 (IL-1β; Homo sapiens, Table 1): 1 µM; IC50 (TNF-α; Homo sapiens, Table 1): 14 µM |
| CCCn1c(Sc2ccc(Cl)cc2)nc(-c2ccc(F)cc2)c1-c1ccncc1 [Example 53, 2-(4-Chlorophenyl)thio-4-(4-fluorophenyl)-1-n-propyl-5-(4-pyridyl)-imidazole] | – | – | IC50 (IL-1β; Homo sapiens, Table 1): 3.3 µM; IC50 (TNF-α; Homo sapiens, Table 1): 29 µM |
| CCCn1c(Sc2ccc(SC)cc2)nc(-c2ccc(F)cc2)c1-c1ccncc1 [Example 54, 4-(4-Fluorophenyl)-2-(4-methylsulfanyl)phenylsulfanyl-1-n-propyl-5-(4-pyridyl)imidazole] | – | – | IC50 (IL-1β; Table 1): 2.5 µM; IC50 (TNF-α; Table 1): 68 µM |
| CCCn1c(Sc2ccc([S+](C)[O-])cc2)nc(-c2ccc(F)cc2)c1-c1ccncc1 (stereo not shown) [Example 55, 4-(4-Fluorophenyl)-2-[(4-methylsulfinyl)phenyl]thio-1-n-propyl-5-(4-pyridyl)imidazole] | – | – | IC50 (IL-1β; Table 1): 0.72 µM; IC50 (TNF-α; Table 1): 6.2 µM |
| CCCn1c(Sc2ccc(S(C)(=O)=O)cc2)nc(-c2ccc(F)cc2)c1-c1ccncc1 [Example 56, 4-(4-Fluorophenyl)-2-[(4-methylsulfonyl)phenyl]thio-1-n-propyl-5-(4-pyridyl)imidazole] | – | – | IC50 (IL-1β; Table 1): 1.5 µM; IC50 (TNF-α; Table 1): 19 µM |
| Cc1nc(S)n(-c2ccc(F)cc2)c1-c1ccncc1 [Example 57, 1-(4-Fluorophenyl)-4-methyl-5-(4-pyridyl)imidazole-2-thiol] | – | – | IC50 (IL-1β; Homo sapiens, Table 1): 19 µM; TNF-α, value given in % (TNF-α; Table 1): 34% |
| Cc1c(-c2ccc(F)cc2)nc(S)n1-c1cccnc1 [Example 58, 4-(4-Fluorophenyl)-5-methyl-1-(3-pyridyl)imidazole-2-thiol] | – | – | IC50 (IL-1β; Homo sapiens, Table 1): 28 µM; TNF-α, value given in % (TNF-α; Table 1): 32% |
| CCCn1c(S)nc(-c2ccncc2)c1-c1ccc(F)cc1 [Example 59] | – | – | IL-1β, value given in % (IL-1β; Table 1, concentration not given): 16%; IC50 (TNF-α; Table 1): 83 µM |
| CSc1nc(-c2ccc(F)cc2)c(-c2ccnc(NC(C)=O)c2)n1C [Example 61, 4-(4-Fluorophenyl)-1-methyl-5-(2-acetamido-4-pyridyl)-2-methyl-thioimidazole] | 0.07 | 0.87 | – |

More lines, main results first:

| IC50 (IL-1β; Homo sapiens, Table 2) [µM] | IC50 (TNF-α; Homo sapiens, Table 2) [µM] | Compound | also measured |
| --- | --- | --- | --- |
| 0.12 | 0.49 | CCCn1c(SC)nc(-c2ccc(F)cc2)c1-c1ccnc(NC(C)=O)c1 [Example 62, 4-(4-Fluorophenyl)-1-n-propyl-5-(2-acetamido-4-pyridyl)-2-methyl-thioimidazole] | – |
| 0.46 | 4.5 | CSc1nc(-c2ccc(F)cc2)c(-c2ccnc(NC(C)=O)c2)n1C1CC(C)(C)NC(C)(C)C1 [Example 63, 4-(4-Fluorophenyl)-1-(2,2,6,6-tetramethylpiperidin-4-yl)-5-(2-acetamido-4-pyridyl)-2-methylthioimidazole] | – |
| 0.27 | 2.3 | CSc1nc(-c2ccc(F)cc2)c(-c2ccnc(N)c2)n1C [Example 66, 4-(4-Fluorophenyl)-1-methyl-5-(2-amino-4-pyridyl)-2-methyl-thioimidazole] | – |
| 0.44 | 0.64 | COc1ccc(C(=O)Nc2cc(-c3c(-c4ccc(F)cc4)nc(SC)n3C)ccn2)cc1 [Example 67, 4-([lacuna]-Fluorophenyl)-1-methyl-5-[2-(4-methoxybenzamido)-4-pyridyl]-2-methylthioimidazole] | – |
| 0.08 | 0.39 | CSc1nc(-c2ccc(F)cc2)c(-c2ccnc(NCc3ccccc3)c2)n1C [Example 70, 4-(4-Fluorophenyl)-1-methyl-5-(2-benzylamino-4-pyridyl)-2-methyl-thioimidazole] | – |
| 0.05 | 0.35 | CCNc1cc(-c2c(-c3ccc(F)cc3)nc(SC)n2C)ccn1 [Example 73] | – |
| 0.15 | 0.41 | CCCn1c(SC)nc(-c2ccc(F)cc2)c1-c1ccnc(NCC)c1 [Example 74, 4-(4-Fluorophenyl)-1-n-propyl-5-(2-ethylamino-4-pyridyl)-2-methylthioimidazole] | – |
| 0.62 | 2.9 | CCNc1cc(-c2c(-c3ccc(F)cc3)nc(SC)n2C2CC(C)(C)NC(C)(C)C2)ccn1 [Example 75] | – |
